From US20190376142A1, “METHOD TO DISTINGUISH TUMOR SUPRESSIVE FOXO ACTIVITY FROM OXIDATIVE STRESS” (KONINKLIJKE PHILIPS N.V., priority 2016, published 2019)

How the values were obtained:
[1] = test system: FOXO activity in Human Umbilical Vein Endothelial Cells (HUVEC); experiment: Computational FOXO model on HUVEC with 4OHT-inducible FOXO3.A3-ER (GSE16573); format: cell-based
Excerpt: A. The Bayesian network structure used as a basis for the modeling approach shown as a simplified model of the transcriptional program of a cellular signal transduction pathway, consisting of three types of nodes: transcription factor, target gene and microarray probe sets corresponding to target genes. B. Training of the computational FOXO3 model on a public GEO dataset GSE16573, consisting of Affymetrix microarray 2.0 Plus expression data from HUVEC containing a 4OHT-inducible FOXO3.A3-ER expression construct. Each bar represents a sample analysis result.
The probabilistic relations in the Bayesian network model were made quantitative using experimental data to enable quantitative reasoning on new experimental samples.

[2] = test system: FOXO3 activity in EGFR-mutant HCC827 lung cancer cell line; experiment: Computational FOXO model on drug-treated HCC827 cells (GSE51212); conditions: HCC827 treated with drug vs untreated (FOXO scored inactive); public dataset GSE51212
Experimental: (§1) Public datasets from samples that were treated with drugs targeting growth factor pathways. A. GEO GSE51212. […] B. GEO GSE30516 dataset.
(§2) Once the model has been calibrated, it could be used on microarray (Affymetrix HG-U133Plus2.0) data of new tumor samples by entering probeset measurements as observations in the bottom layer, and inferring backwards in the model the activity probability of the FOXO3 transcription factor. The model was frozen and applied to microarray data of cell line and tissue samples by entering probeset measurements as observations into the model, inferring backwards FOXO transcription factor activity score as the log-2 value of the FOXO transcription factor odds p/(1−p).
(§3) Parameters enforcing relationships between the FOXO transcription complex and target genes were manually set to improve generalization behavior of the model across different tissue types (11). Parameters describing relationships between target genes and their respective probe sets were calibrated on a public data set of Human Umbilical Vein Endothelial Cells (HUVEC) carrying inducible constitutively active FOXO3.A3-ER, and a threshold for FOXO-activity was set (GSE16573) (20).

[3] = test system: FOXO activity in MCF7 (ER positive breast cancer cell line); experiment: Computational FOXO model on Erlotinib-treated MCF7 cells (GSE30516); conditions: MCF7 treated with Erlotinib; public dataset GSE30516
Experimental: as §1, §2, §3

[4] = test system: FOXO activity in MDA-MB-453 (HER2 positive breast cancer cell line); experiment: Computational FOXO model on Erlotinib-treated MDA-MB-453 cells (GSE30516); conditions: MDA-MB-453 treated with Erlotinib; public dataset GSE30516
Experimental: as §1, §2, §3

[5] = test system: FOXO activity in BT20 (triple-negative breast cancer cell line); experiment: Computational FOXO model on Erlotinib-treated BT20 cells (GSE30516); conditions: BT20 treated with Erlotinib; public dataset GSE30516
Experimental: as §1, §2, §3

CC/C(=C(\c1ccc(O)cc1)c1ccc(OCCN(C)C)cc1)c1ccccc1 [4OHT]
FOXO activity predicted by the Bayesian model ([1]; HUVEC-FOXO3.A3-ER treated with 4OHT): highly active FOXO
FOXO activity predicted by the Bayesian model ([1]; HUVECs expressing FOXO3.A3-ER-H212R (reduced DNA binding) treated with 4OHT): low FOXO3 activity
FOXO activity predicted by the Bayesian model ([1]; HUVECs without construct, treated with 4OHT): low FOXO activity

Cn1c(=O)n(-c2ccc(C(C)(C)C#N)cc2)c2c3cc(-c4cnc5ccccc5c4)ccc3ncc21 [BEZ235]
FOXO3 activity scored by the FOXO model [2]: scored active

C#Cc1cccc(Nc2ncnc3cc(OCCOC)c(OCCOC)cc23)c1 [Erlotinib]
FOXO activity score [3]: increased
FOXO activity score [4]: increased
FOXO activity score [5]: increased
